From patent publication US9750701B2, “Pharmaceutical dosage form” (GRÜNENTHAL GMBH, priority 2008, dated 2017)
Like-named read-outs stand apart in the source and are kept apart here.

Assay: pharmacokinetic data of tapentadol formulation (blood plasma concentrations)
Type: in vivo, patients/test subjects
Details: human, formulation containing tapentadol; for AUC(0-inf): read-out: AUC0-∞ (total area under the curve); for half-life: read-out: t1/2 (half-life) (converted)
From the text: For the purposes of the description, the pharmacokinetic parameters, which may be determined from the blood plasma concentrations of the pharmacologically active compound (A), are defined as follows: […]
The above parameters are in each case stated as mean values of the individual values for all investigated patients/test subjects.
In a particularly preferred embodiment the pharmacologically active compound (A) is tapentadol or a physiologically acceptable salt thereof and the pharmaceutical dosage form according to the invention is bioequivalent to a formulation that contains tapentadol or a physiologically acceptable salt thereof in a dosage of 200 mg and 250 mg, respectively, and is characterized by the following pharmacokinetic data: […]

For `CC[C@@H](c1cccc(O)c1)[C@@H](C)CN(C)C` [tapentadol], the Cmax (dosage 200 mg) was 62.5 ng/mL, the Tmax (dosage 200 mg) was 5 h and the AUC(0-inf) (dosage 200 mg) was 825 ng·h/mL. The half-life (dosage 200 mg) was 5.2 h, the Cmax (dosage 250 mg) was 89.3 ng/mL and the Tmax (dosage 250 mg) was 5 h. The AUC(0-inf) (dosage 250 mg) was 1100 ng·h/mL and the half-life (dosage 250 mg) was 5.4 h.
